Source: patent publication US10674723B2, “1,8-bis(Schiff base)-p-menthane derivatives as well as preparation method and applications thereof” (INSTITUTE OF CHEMICAL INDUSTRY OF FOREST PRODUCTS, CAF, priority 2016, dated 2020)

System: annual ryegrass
Assay: Pre-emergence herbicidal activity by the Petri dish seed germination method
Assay type: in vivo
Details: 25° C., 5 days
Procedure: Step 2: accurately weigh 1 mmol of the 1,8-bis(Schiff base)-p-menthane derivative and dissolve it in 0.25 mL DMF, and then add a drop of Tween 80 into it; after the product is fully dissolved, the resulting solution is transferred to a 100 mL volumetric flask and is diluted with distilled water to the mark to obtain a solution having a concentration of 10 mmol/L as the mother liquor. Using the two-fold dilution method, a series of diluted sample solutions with different concentrations are prepared with the mother liquor (the concentrations of DMF and Tween 80 in the diluted solutions should be consistent with those in the mother liquor).
The annual ryegrass seeds are soaked with distilled water for 15 h. Place a piece of filter paper on the bottom of a Petri dish (φ9 cm), add 10 mL of the above sample solution having the corresponding concentration into it, respectively, and add the same amount of the mixture of water, DMF and Tween 80 into such a Petri dish as a blank control. Place 10 grains of seeds into each dish. The dishes are then placed in an incubator and cultured at 25° C. for 5 days. The experimental data are analyzed with DPS software, and the inhibition rate of the 1,8-bis(Schiff base)-p-menthane derivative on the root or stem growth of ryegrass seeds is calculated as follows:
[formula] Where: y is the inhibition rate on the root or stem growth, x2 is the root length or stem length of the control sample, and x1 is the root length or stem length of the sample.
1 mmol of the 1,8-bis(2-hydroxyphenylimine)-p-menthane was accurately weighed and dissolved in 0.25 mL DMF; a drop of Tween 80 was then added into it; after the product was fully dissolved, the resulting solution was transferred to a 100 mL volumetric flask and was diluted with distilled water to the mark to obtain a solution having a concentration of 10 mmol/L as the mother liquor. Using the two-fold dilution method, a series of diluted sample solutions with different concentrations (5 mmol/L, 2.5 mmol/L, 1.25 mmol/L, 0.625 mmol/L and 0.3125 mmol/L; the concentrations of DMF and Tween 80 in the diluted solutions should be consistent with those in the mother liquor) were prepared with the mother liquor.
The annual ryegrass seeds were soaked with distilled water for 15 h. Placed a piece of filter paper on the bottom of a Petri dish (φ 9 cm), added 10 mL of the above sample solution having the corresponding concentration into it, respectively, and added the same amount of the mixture of water, DMF and Tween 80 into such a Petri dish as a blank control. 10 grains of seeds were placed into each of the dishes. The dishes were then placed in an incubator and cultured at 25° C. for 5 days.

| Substance | inhibition rate on the root growth of ryegrass seeds (0.3125 mmol/L solution) | inhibition rate on the stem growth of ryegrass seeds (0.3125 mmol/L solution) | inhibition rate on the root growth of ryegrass seeds (0.625 mmol/L solution) | inhibition rate on the stem growth of ryegrass seeds (0.625 mmol/L solution) | inhibition rate on the root growth of ryegrass seeds (1.25 mmol/L solution) | inhibition rate on the stem growth of ryegrass seeds (1.25 mmol/L solution) | inhibition rate on the root growth of ryegrass seeds (2.5 mmol/L solution) | inhibition rate on the stem growth of ryegrass seeds (2.5 mmol/L solution) | inhibition rate on the root growth of ryegrass seeds (5 mmol/L solution) | inhibition rate on the stem growth of ryegrass seeds (5 mmol/L solution) | inhibition rate on the root growth of ryegrass seeds (10 mmol/L solution) | inhibition rate on the stem growth of ryegrass seeds (10 mmol/L solution) |
| --- | --- | --- | --- | --- | --- | --- | --- | --- | --- | --- | --- | --- |
| 1,8-bis(2-hydroxyphenylimine)-p-menthane | 14.3% | 6.9% | 41.4% | 38.0% | 62.2% | 61.7% | 83.3% | 79.5% | 100.0% | 100.0% | 100.0% | 100.0% |
| 1,8-bis(2-trifluoromethylphenylimine)-p-menthane | 79.2% | 56.3% | 86.2% | 56.3% | 99.7% | 88.2% | 100.0% | 100.0% | 100.0% | 100.0% | 100.0% | 100.0% |
| 1,8-bis(4-bromophenylimine)-p-menthane | 71.0% | 64.8% | 88.0% | 79.5% | 100.0% | 100.0% | 100.0% | 100.0% | 100.0% | 100.0% | 100.0% | 100.0% |
| 1,8-bis(4-chlorophenylimine)-p-menthane | 94.1% | 75.2% | 98.0% | 90.3% | 99.3% | 91.4% | 100.0% | 98.2% | 100.0% | 100.0% | 100.0% | 100.0% |
| 1,8-bis(4-fluorophenylimine)-p-menthane | 14.0% | 4.5% | 35.0% | 21.6% | 58.0% | 49.9% | 78.0% | 53.8% | 85.5% | 82.5% | 94.9% | 94.9% |
| 1,8-bis(4-methoxyphenylimine)-p-menthane | 12.5% | 30.6% | 15.5% | 32.2% | 54.3% | 48.2% | 88.3% | 73.9% | 100.0% | 100.0% | 100.0% | 100.0% |
| 1,8-bis(4-methylphenylimine)-p-menthane | 20.3% | 11.1% | 26.3% | 25.9% | 34.2% | 26.8% | 67.0% | 46.2% | 92.8% | 90.4% | 100.0% | 100.0% |
| 1,8-bis(p-dimethylaminophenylimine)-p-menthane | 100.0% | 96.8% | 100.0% | 100.0% | 100.0% | 100.0% | 100.0% | 100.0% | 100.0% | 100.0% | 100.0% | 100.0% |
| 1,8-bis(p-methylthiophenylimine)-p-menthane | 37.7% | 20.8% | 46.4% | 28.7% | 35.4% | 27.1% | 54.8% | 28.0% | 50.3% | 21.9% | 67.8% | 36.7% |
| 1,8-bis(p-trifluoromethylphenylimine)-p-menthane | 35.4% | 1.1% | 45.5% | 2.4% | 65.8% | 26.0% | 87.5% | 53.7% | 81.7% | 34.8% | 93.8% | 87.9% |
